{"source": "patent US5430058A", "about": "“Pharmaceutical compositions comprising hydroxamate derivatives for iron removal” (Yeda Research and Development Co. Ltd., priority 1993, dated 1995)", "key": {"[1]": {"assay": "Extraction of iron from aqueous FeCl3/citrate into chloroform", "assay_type": "physicochemical", "settings": "0.3 mM in chloroform vs 0.3 mM FeCl3, 0.3 mM citric acid, 40 mM TRIS, pH 6.9, overnight", "protocol": "d. Extractions were performed by overnight equilibration of 0.3 mM chloroform solutions of reversed siderophore with aqueous solutions of 0.3 mM FeCl3, 0.3 mM citric acid, 40 mM TRIS, pH 6.9. The amount of iron taken up into the organic phase was determined by the absorption of the iron+complex at 430 nm. No iron uptake into chloroform solutions devoid of RSF was observed by ion chromatography."}, "Plasmodium falciparum": {"tested_on": "Plasmodium falciparum", "assay": "Antimalarial activity, general comparison and statements", "assay_type": "cell-based", "protocol": "g. Bioassay of iron carrier antimalarial activity. The antimalarial activity was assayed by adding the compounds from concentrated stock solutions (in DMSO) to microcultures (24 wells, Costar) containing infected red cells (2.5% hematocrit and 2% parasitemia). The cultures were usually synchronized (4-7 hrs. windows) by incubation in 300 mM Ala, 10 mM TRIS-Cl in conjunction with gelatin flotation and used either at the trophozoite (1-2% parasitemia) or at the ring stage (4-6% parasitemia) of the erythrocyctic cycle. After the indicated time of incubation with drug and either previous to or after washing 3 times with 100 volumes growth medium, the cells were supplemented with 6 μCi of either [^3 H]-hypoxanthine or [^3 H]-Ileu (Amersham, England) per well and parasite growth assessed after 24-48 hours by harvesting the labelled cells onto glass-fiber filters (Tamar, Inc. Jerusalem) and counting of the radioactivity.\nThe antimalarial activity of the different chelators was initially evaluated on cultures of trophozoites which were exposed for 24 hours to different concentrations of chelators. Following that period, [^3 H]-hypoxanthine or [^3 H]-Ileu were added and 24 hours later the parasitemia and incorporation of label into macromolecular material was determined."}, "normal red cells": {"tested_on": "normal red cells", "assay": "Uptake of 59Fe-carrier complexes into normal red cells", "assay_type": "cell-based, human", "settings": "iron(III) complex, normal red cells", "protocol": "k. Uptake of radioactive carrier-Fe complexes. DFO and the different SF derivatives were pre-complexed with iron by addition of concentrated stock solutions of 20 mg/ml carriers to ^59 FeCl3 (Amersham, England) in 0.5 ml of 150 mM NaCl, 10 mM Hepes at 3-5 molar excess of carrier for 1 hour at room temperature. To begin the flux, normal or parasitized red cells that had been washed 3 times in saline buffer and resuspended in the same buffer supplemented with 5% bovine serum albumin (BSA), 2.5 mM citrate, 2 mg/ml glucose were added to radioactive ^59 Fe-complexes at a final suspension of 20% hematocrit. After incubation at 37° C., 75 μl suspension was removed in duplicate aliquots for each time point, placed in plastic 15 ml test tube (Starstedt) and centrifuged 1 minute at 2,500 g. The supernatant was removed and the pellet immediately placed on ice. After all sampling was completed the pellets were washed twice in 15 ml of ice cold buffer containing 50 mM EDTA and lysed in distilled water. Radioactivity (Gamma emission, 700-1300 Kev) was counted and the cell number for each sample determined from hemoglobin absorption of the lysate at 410 nm.\nDue to the fact that RSF's have markedly greater lipophilicity than DFO, they were expected to faster penetrate and therefore more effectively chelate intracellular iron after short exposure times. Penetration of RSF's into normal and infected red cells was estimated by monitoring uptake of the RSF's-^59 Fe(III) complexes into infected and uninfected cells and compared to DFO. In order to confirm actual uptake of Fe-RSF ileun2 rather than adsorption to the outer membrane, cells were thoroughly washed and lysates were subjected to 80,000g×20 min centrifugation. More than 90% of the total counts were found in the cytosol fraction (results not shown).\nFIGS. 8a and 8b show uptake of Fe^59 -carrier complexes into normal and infected red cells. Uptake of ^59 -Fe-RSF (FIG. 8a) and ^59 Fe-DFO (FIG. 8b) into normal (open symbols) and infected (closed symbols) red cells (60% parasitemia, >90% trophozoites). The carriers were pre-complexed to ^59 FeCl3 at 4:1 ration in DMSO with 5 μM external FeCl3 (from methanolic stock solutions). The radioactive complexes were then added to 20% hematocrit cell suspensions and flux was measured. Specific activity was 485000 cpm/nmole and 369000 cpm/nmole for the RSF and DFO uptake experiments, respectively. Cell number was determined from hemoglobin absorption of lysate at 410 nm."}, "[2]": {"tested_on": "mammalian cells in culture", "assay": "Growth/toxicity in mammalian cells in culture, general statement", "assay_type": "cell-based", "protocol": "The possibility that the reversed siderophores might affect mammalian cells in culture was assessed in conditions identical to those used for parasites in cultures. […] Nucleic acid synthesis was measured in cultures of mouse NIH 3T3 fibroblasts and human HT29 colonic carcinoma cells in the presence of either SF1-ileu (open circles), desferrioxamine (DFO) (solid triangle) in DMSO or DMSO alone (Control) (<1% final) (open triangles) at same concentrations. Cultures at confluence were exposed to chelators for 24 hours; the first 3 hours without radiolabel and 21 hours with 6 μCi/ml of [^3 H]-hypoxanthine. Extracellular hypoxanthine was removed by several washes with PBS and the cells were treated with 5% TCA for 15 minutes at 5° C. and solubilized with hot 2.5% SDS. Samples were taken for counting of radioactivity and measurement of protein (BCA, Pierce). Data are given as dpm/μg protein and SD (duplicate samples)."}, "[3]": {"settings": "amino acid side chain, Tanford/Segret's scale as given by Eisenberg 1984; cited from earlier work"}}, "note": "“Also recorded” adds a separate entry of the source."}
{"smiles": "CC[C@H](C)[C@H](NC(=O)CCOCC(CC)(COCCC(=O)N[C@H](C(=O)N(C)O)[C@@H](C)CC)COCCC(=O)N[C@H](C(=O)N(C)O)[C@@H](C)CC)C(=O)N(C)O", "note": "[SF1-ileu]", "values": [{"measurement": "Extraction efficiency", "setting": "[1]", "value": 52}, {"measurement": "Efficiency relative to DFO", "setting": "Plasmodium falciparum; 24-48 hours exposure, various strains", "value": "6-13 fold"}, {"measurement": "Speed of action relative to desferrioxamine", "setting": "Plasmodium falciparum; faster acting than desferrioxamine", "value": 20, "unit": "fold"}, {"measurement": "Arrest of parasite growth", "setting": "Plasmodium falciparum; infected red blood cells", "value": "arresting parasite growth irreversibly within a few hours"}, {"measurement": "Potency relative to desferrioxamine", "setting": "Plasmodium falciparum; more potent than desferrioxamine", "value": 15, "unit": "fold"}, {"measurement": "Time to maximum uptake", "setting": "normal red cells", "value": "10 to 15", "unit": "min"}, {"measurement": "Maximum uptake level", "setting": "normal red cells; 5 μM external Fe", "value": 4, "unit": "nmoles/10^10 cells"}, {"measurement": "Uptake t1/2", "setting": "normal red cells; 5 μM external Fe", "value": "2 to 3", "unit": "min"}, {"measurement": "Growth of / toxicity to mammalian cells in culture", "setting": "[2]", "value": "does not affect the growth of various types of mammalian cells in culture; also recorded: not toxic to mammalian cells in culture"}, {"measurement": "Hydrophobicity", "setting": "[3]", "value": 5.0}]}
